The source of these data is patent US20120157529A1 (priority 2009, published 2012).

The target of data set [1] is T1, ToxT (Vibrio cholerae serotype O1, UniProt A5F384).
T1 construct: Full-length ToxT was cloned from Vibrio cholerae 0395; made in house; host or cells: E. coli BL21-CODONPLUS (DE3)-RIL
T1 sequence (A5F384 1-276): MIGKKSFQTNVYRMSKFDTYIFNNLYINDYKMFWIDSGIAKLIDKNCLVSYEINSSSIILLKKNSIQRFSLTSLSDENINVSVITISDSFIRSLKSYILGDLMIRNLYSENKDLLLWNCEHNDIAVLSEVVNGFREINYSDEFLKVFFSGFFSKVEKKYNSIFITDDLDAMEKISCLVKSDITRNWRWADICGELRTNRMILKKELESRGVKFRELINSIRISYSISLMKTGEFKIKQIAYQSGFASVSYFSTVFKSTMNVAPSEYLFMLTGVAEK
Kind of data set: Electrophoretic mobility shift assay of ToxT binding to tcp promoter DNA. In kind it is biochemical. Particulars: fatty acid 0.002%; 30 minutes at 30° C. On the procedure: Electrophoretic Mobility Shift Assays. Single-stranded, forty base-pair complimentary oligos (Operon) from the tcp promoter (5′-GTGTTATTAAAAAAATAAAAAAACACAGCAAAAAATGACA-3′; SEQ ID NO:1) were end labeled with a biotin-conjugated dUTP using the Biotin 3′ End Labeling Kit (Pierce) following the manufacturer's instructions and then annealed to form double-stranded fragments. EMSA's were carried out using the LightShift Chemiluminescent EMSA Kit (Pierce) following the manufacturer's instructions. Briefly, 2.5 pmole, 4 pmole, 5 pmole of ToxT were mixed with 50 fmole of double-stranded labeled DNA in a binding buffer (10 mM Tris pH 7.5, 1 mM EDTA, 100 mM KCl, 5 mM MgCl2, 1 mM DTT, 0.3 mg mL^−1 BSA, 150 μg herring sperm DNA, and 10% glycerol). Fatty acids were dissolved in methanol and added to a final concentration of 0.002% using the same volume of methanol as a control. To show specificity, a 70-fold molar excess of unlabeled double-stranded tcp fragment and a 70-fold molar excess of unlabeled nonspecific DNA (42 base pairs) were added as controls. Reactions were then incubated for 30 minutes at 30° C. and loaded on a 1×TBE 6% polyacrylamide gel at 4° C. then transferred onto a positively charged membrane (HYBOND XL, GE Healthcare) and detected by chemiluminescence. An EMSA experiment was conducted using the control reagents from the LightShift Chemiluminescent EMSA Kit following the manufacturer's instructions while adding methanol and 0.02% fatty acids.
(In general: In EMSA bound probe runs differently from free probe, usually more slowly.)

The test system of another data set is tcp and ctx operons. Kind of data set: β-galactosidase assay of tcp-lacZ and ctx-lacZ fusions in V. cholerae cultures with added fatty acids. In kind it is cell-based, Vibrio cholerae. Particulars: fatty acid at 0.02% in methanol; LB medium pH 6.5, 30° C., 18 hours. Here is the method:
Expression is based upon β-galactosidase activity of tcpA-lacZ and ctx-lacZ fusion constructs, respectively. Cells were grown in LB medium pH 6.5 at 30° C. for 18 hours +/− the indicated fatty acids at 0.02% dissolved in methanol. C, control with methanol; PA, sodium palmitate; POA, palmitoleic acid; OA, oleic acid.
β-galactosidase Assays. β-galactosidase activity was determined by conventional methods (Miller (1972) Experiments in Molecular Genetics (Cold Spring Harbor Laboratory Press, Cold Spring Harbor, N.Y.). The tcp-lacZ and ctx-lacZ strains MBN135 (Nye, et al. (2000) J. Bacteriol. 182:4295-4303) and KSK218 (Skorupski & Taylor (1997) Proc. Natl. Acad. Sci. USA 94:265-270) were grown for 18 hours in LB media pH 6.5 at 30° C. Either methanol or the indicated fatty acids were added to 0.02%.
To address whether cis-palmitoleate was capable of influencing the activity of ToxT, different UFAs and SFAs were added to cultures of V. cholerae strains carrying transcriptional fusions to the tcp and ctx operons. […].

A further data set deals with V. cholerae strain 0395. Description: Infant mouse cholera model, survival at 48 hours post-infection. In kind it is in vivo. Particulars: for protection of mice from cholera / survival versus control and methanol groups: infant mouse, 48 hours post-infection, Tukey HSD p<0.05. Here is the method:
FIG. 3 is a means diamond plot. Mouse lethality data was converted to survival rates based on percentage of 48 hours at time of death. A one-way ANOVA was used to test for survival rate differences among the five groups in the challenge assay. […] Arcsine transformations were performed on the data to remove possible bias caused by percentages but there was no difference between transformed and non-transformed data. A means diamond illustrates a sample mean and 95% confidence interval. The line across each diamond represents the group mean. The vertical span of each diamond represents the 95% confidence interval for each group. Overlap marks are drawn above and below the group mean. […] The horizontal extent of each group along the x-axis (the horizontal size of the diamond) is proportional to the sample size of each level of the x variable. It follows that the narrower diamonds are usually the taller ones because fewer data points yield a less precise estimate of the group mean. Control is bacteria in broth. MeOH is methanol and MeOHC received a second dose of methanol 1 hour after infection. PA is 0.2% palmiteoleic acid dissolved in methanol and PAC includes a second dose of 0.2% palmiteoleic acid administered 1 hour after infection.
Palmiteoleic acid (0.2%) dissolved in methanol was co-administered orally with approximately a 10 lethal dose 50 (LD50) of V. cholerae strain 0395. In some cases an additional administration of palmiteoleic acid was given to the mice one hour after infection. The ability of palmiteoleic acid to prevent death from cholera was assessed at 48 hours post-infection. The results are presented in FIG. 3 as a means diamond plot.

In another data set the test system is ToxT-activated genes. Particulars: cited from earlier work.
The target of data set [2] is T1, ToxT. The conditions noted are these: cited from earlier work.
Data set [3] deals with ToxT (Vibrio cholerae O395, UniProt A5F384 A5F384:1-276). Description: EMSA; bound at 100-fold molar excess of protein (5 pmol ToxT to 50 fmol DNA), not at 50-fold; competed by 70-fold unlabeled probe; 5 mM MgCl2, 100 mM KCl, pH 7.5, 30. Particulars: tags: full-length; expressed as intein/CBD fusion (pTXB1, NEB IMPACT-CN), tag cleaved with DTT; label: 3' biotin-dUTP.

For the molecule `CCCCCC/C=C\CCCCCCCC(=O)O` [palmitoleic acid, (Z)-9-hexadecenoic acid], on ToxT [1], the “effect on ToxT binding to DNA (40 base-pair tcp promoter probe)” value (“effect on ToxT binding to DNA” below) is listed as “completely prevented ToxT from binding to DNA”. Moreover, in the data set with tcp and ctx operons, the “reduction of expression of tcp and ctx operons (β-galactosidase activity of lacZ fusions)” value (“reduction” for short) was 6-8 fold. The “mean survival rate (percentage of 48 hours at time of death)” value in the data set on V. cholerae strain 0395 (0.2% co-administered orally plus second dose 1 hour after infection, group PAC {5}) is 89.389%; in the data set with V. cholerae strain 0395 (0.2% in methanol co-administered orally with about 10 LD50 V. cholerae 0395, group PA {4}) it was 80.093%. For the same molecule, the “protection of mice from cholera / survival versus control and methanol groups” value in the data set on V. cholerae strain 0395 (listed as PA) is given as “significantly higher survival rates”; in the data set with V. cholerae strain 0395 (listed as palmiteoleic acid) it was “extremely effective at protecting the mice from cholera”.
`CCCCC/C=C\C/C=C\CCCCCCCC(=O)O` [linoleic acid]: the “inhibition of expression of ToxT-activated genes” value (from here on “inhibition”) with ToxT-activated genes is given as “strongly inhibit”.
Regarding `CCCCCCCCCCCCCCCCCC(=O)O` [stearic acid], the “inhibition” value in the data set on ToxT-activated genes was “not shown to inhibit”.
Consider `CCCCCCCCCCCCCCCC(=O)O` [palmitic acid], for which the “effect on ToxT binding to DNA” value on ToxT [1] was “no effect on ToxT binding”. Moreover, the “inhibition” value in the data set with ToxT-activated genes is “not shown to inhibit”. In addition, in the data set with tcp and ctx operons, the “reduction” value is recorded as “two-fold”.
Turning to `O=C(O)CCCN1C(=O)c2cccc3cccc(c23)C1=O` [virstatin, 4-[N-(1,8-naphthalimide)]-n-butyric acid], the “effect on ToxT dimerization and activation of tcp and ctx promoter transcription” value at ToxT [2] is “interferes with ToxT's ability to dimerize and activate transcription of the tcp and ctx promoters”.
`CCCCCCCC/C=C\CCCCCCCC(=O)O` [oleic acid]: at ToxT [1], the “effect on ToxT binding to DNA” value is given as “completely prevented ToxT from binding to DNA”. For the same molecule, the “inhibition” value in the data set on ToxT-activated genes was “strongly inhibit”. For the same molecule, the “reduction” value in the data set on tcp and ctx operons is 10-15 fold.
In the case of `CCCCC/C=C\C/C=C\C/C=C\C/C=C\CCCC(=O)O` [arachidonic acid], the “inhibition” value in the data set on ToxT-activated genes was “strongly inhibit”.

B1: tcp promoter 40 bp toxbox probe (dsDNA)
DNA 1: GTGTTATTAAAAAAATAAAAAAACACAGCAAAAAATGACA
DNA 2: TGTCATTTTTTGCTGTGTTTTTTTATTTTTTTAATAACAC
On to B1, for which the binding result in the data set with ToxT [3] is on record as “binds”.
